Reference: patent publication US12048686B2, “Compositions and methods for activating NRF2-dependent gene expression” (The University of Chicago, priority 2018, dated 2024)

Tests used:
KEAP1 [1] = test: Western blot of KEAP1 / HMW-KEAP1 formation in treated cells (HEK293T FLAG-KEAP1, IMR32); assay type: cell-based, human
Description: FLAG-tagged Protein Expression and Western Blotting. Full-length, human PGK1 (NM_000291, Origene) transiently expressed from a pCMV6 entry vector with a C-terminal Myc-DDK tag; full-length, human KEAP1 (28023, Addgene) was transiently expressed from a pcDNA/FRT/TO plasmid with a C-terminal 3×FLAG tag. All references to FLAG-PGK1 or FLAG-KEAP1 represent the proteins in the aforementioned vectors, respectively. Transient protein expression was performed in confluent 10 cm plates of HEK293T cells by transfection of 1 μg plasmid with Lipofectamine 2000 (Invitrogen) according to manufacturer's protocol. For in situ compound or metabolite treatment experiments, compounds were added approximately 24 hours after transfection, and incubated for the indicated duration. For FLAG-KEAP1 western blotting and immunoprecipitation experiments, cells were harvested by scraping, pelleted by centrifugation, washed twice with PBS and lysed in 8 M urea, 50 mM NH4HCO3, phosphatase inhibitor cocktail (Sigma Aldrich), and EDTA-free complete protease inhibitor (Roche), pH 8.0, at 4° C. Lysate was sonicated (Fisher Scientific FB-505), insoluble debris cleared by centrifugation, and the supernatant was diluted into 4× Laemmli buffer containing 50 mM dithiothreitol (DTT) as a reducing agent. Samples were prepared for SDS-PAGE by heating to 95° C. for 5 minutes, cooled to room temperature, resolved on NuPAGE Novex 4-12% Bis-Tris Protein Gels (Invitrogen), and transferred onto nitrocellulose membranes by standard western blotting methods. Membranes were blocked in 2% BSA in TBS containing 0.1% tween-20 (TBST) and probed with primary and secondary antibodies. Primary antibodies used in this study include: anti-FLAG-M2 (1:1000, F1804, Sigma Aldrich), anti-KEAP1 (1:500, SC-15246, Santa Cruz), anti-HSPA1A (1:1000, 4872, Cell Signaling), anti-ACTB (1:1000, 4790, Cell Signaling), anti-GAPDH (1:1000, 2118S, Cell Signaling) and TUBG (1:1000, 5886, Cell Signaling). […]

KEAP1 [2] = biological target: T1, KEAP1 (Homo sapiens, UniProt Q14145); test: Targeted proteomic analysis of crosslinked KEAP1 peptides; assay type: cell-based; settings: gel-isolated HMW-KEAP1 vs monomeric KEAP1
T1 construct: full-length, human KEAP1 (28023, Addgene) was transiently expressed from a pcDNA/FRT/TO plasmid with a C-terminal 3×FLAG tag; host or cells: HEK293T
T1 sequence (Q14145 whole entry): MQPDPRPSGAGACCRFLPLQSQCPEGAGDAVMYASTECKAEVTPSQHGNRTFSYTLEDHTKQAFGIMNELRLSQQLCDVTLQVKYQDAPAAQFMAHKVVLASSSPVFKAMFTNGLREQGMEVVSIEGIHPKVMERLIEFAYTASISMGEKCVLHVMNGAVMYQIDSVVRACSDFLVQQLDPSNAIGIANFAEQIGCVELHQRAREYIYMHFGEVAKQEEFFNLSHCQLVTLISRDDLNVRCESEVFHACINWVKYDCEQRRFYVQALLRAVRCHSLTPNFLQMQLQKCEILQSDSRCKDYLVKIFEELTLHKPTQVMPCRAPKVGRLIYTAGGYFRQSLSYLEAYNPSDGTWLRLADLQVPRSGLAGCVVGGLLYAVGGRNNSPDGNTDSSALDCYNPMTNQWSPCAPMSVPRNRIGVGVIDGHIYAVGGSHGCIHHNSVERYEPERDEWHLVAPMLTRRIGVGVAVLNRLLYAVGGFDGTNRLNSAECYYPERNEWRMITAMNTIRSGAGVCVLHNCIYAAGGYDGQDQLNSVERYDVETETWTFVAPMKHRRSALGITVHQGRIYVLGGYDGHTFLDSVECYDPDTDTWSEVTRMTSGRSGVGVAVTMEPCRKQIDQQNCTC
Description: In-gel digestion of KEAP1 Targeted proteomic analyses of KEAP1 protein were performed by running anti-FLAG enriched HMW-KEAP1 and LMW-KEAP1 (from both CBR-470-1 or MGx treatments as above) on SDS-PAGE gels, and isolated gel pieces were digested in-gel with sequencing grade trypsin (Promega), as previously reported^35. Tryptic peptides from in-gel tryptic digestions were dissolved in 100 mM Tris-HCl, pH 8.0, with 2 mM of CaCl2), and further digested with mass spectrometry-grade chymotrypsin (Thermo Scientific) according to manufacturer's protocol. Chymotryptic digestion reactions were stopped by acidification, and desalted on Ziptip C18 tips.
Targeted proteomic analysis of crosslinked KEAP1 peptides. Double digested KEAP1 peptides from isolated HMW-KEAP1 and monomeric KEAP1 were analyzed by LC-MS/MS on an Easy-nLC 1000 ultra-high pressure LC system coupled to a Q Exactive HF orbitrap and Easy-Spray nanosource as indicated above. Candidate peptides were initially searched by manual inspection of chromatograms and MS1 spectra for m/z values of peptide candidates from predicted digestion sites, crosslink sites and differential presence in HMW- and monomeric KEAP1 from both CBR-470-1 and MGx treated samples. Extracted MS1 ions of the candidates were present in HMW-KEAP1 digests but not in LMW-KEAP1 digests. […]

HCT116 = test: Viability of HCT116 with genetic manipulation of GLO1 and PGK1; assay type: cell-based

Structure (SMILES) | KEAP1 levels and α-pgK immunoreactive bands (KEAP1 [1]; IMR32 cells, 30 minutes) | high molecular weight KEAP1 (HMW-KEAP1) band (KEAP1 [1]; Western blot of treated cells) | MICA crosslinked C151-R135 KEAP1 peptide (KEAP1 [2]) | viability sensitivity of PGK1 knockdown cells (HCT116; HCT116, PGK1 knockdown) | viability sensitivity of cells acclimated to low GLO1 levels (HCT116; HCT116, low GLO1) | formation of HMW-KEAP1 (KEAP1 [1]; treatment of cell lysates or live cells with metabolite)
CC(C)CN[C@H]1CS(=O)(=O)C[C@@H]1S(=O)(=O)c1ccc(Cl)cc1 [CBR-470-1] | did not result in altered KEAP1 levels, or any α-pgK immunoreactive bands | dose-dependent, high molecular weight KEAP1 (HMW-KEAP1) band | MICA crosslink between C151 and R135 was identified in isolated HMW-KEAP1 | more sensitive to CBR-470-1 metabolic inhibition | resistance to CBR-470-1 metabolic inhibition | –
CC(=O)C=O [MGx, methylglyoxal, reference compound] | – | – | MICA crosslink between C151 and R135 was identified in isolated HMW-KEAP1 | – | – | selective formation of HMW-KEAP1
